Experiment [1] has as its system cloned mammalian (mSlo or hSlo) BK channel. Put plainly: Assay for BK channel openers: two-electrode voltage clamp of BK-mediated outward current in Xenopus oocytes. In kind it is cell-based. The note with it: percent increase over BK current in controls, voltage step to +140 mV, IBTX-sensitive current. As to the method:
The ability of the compounds of the invention to open BK channels and increase whole-cell outward (K^+) BK-mediated currents was assessed under voltage-clamp conditions by determining their ability to increase cloned mammalian (mSlo or hSlo) BK-mediated outward current heterologously expressed in Xenopus oocytes [Butler, A., et al., Science 1993, 261, 221–224; Dworetzky, S. I., et al., Mol. Brain Res. 1994, 27, 189–193; Gribkoff, V. K., et al., Mol. Pharmacol. 1996, 50, 206–217]. The two BK constructs employed represent nearly structurally identical homologous proteins, and have proven to be pharmacologically indistinguishable in our tests. To isolate BK current from native (background, non-BK) current, the specific and potent BK channel-blocking toxin iberiotoxin (IBTX) [Galvez, A., et al., J. Biol. Chem. 1990, 265, 11083–11090] was employed at a supramaximal concentration, e.g., 50–100 nanomolar (“nM”). The relative contribution of BK channel-mediated current to total outward current was determined by subtraction of the current remaining in the presence of IBTX (non-BK current) from the current profiles obtained in all other experimental conditions (control, drug, and wash) [Gribkoff, V. K. et al., Mol. Pharmacol. 1996, 50, 206–217]. […] All compounds were tested in 5–10 oocytes and are reported at the indicated concentration of 20 micromolar (“μM”) (or as otherwise indicated); the effect of the selected compounds of the invention on BK current was expressed as the percent of control IBTX-sensitive current at a single transmembrane voltage (+140 mV) and is listed in Table 1. Recordings were accomplished using standard two-electrode voltage clamp techniques [Stuhmer, W., et al., Methods in Enzymology, 1992, 207, 319–339]; voltage-clamp protocols consisted of 500–750 milliseconds (“ms”) duration step depolarizations, from a holding potential of −60 mV, to a final voltage up to +140 mV in 20 mV steps. The experimental media (modified Barth's solution) consisted of millimolar (“mM”): NaCl (88), NaHCO3 (2.4), KCl (1.0), HEPES (10), MgSO4 (0.82), Ca(NO3)2 (0.33), CaCl2 (0.41); pH 7.5.

Experiment [2] has as its system rabbit corpus cavernosum tissue. Put plainly: Relaxation of rabbit corpus cavernosum strips precontracted with phenylephrine. The note with it: Oryctolagus cuniculus; inhibition of phenylephrine (3 μM)-induced force as compared to vehicle control; read-out: % Inhibition of force (RCC strips). As to the method:
The ability of the compounds of the invention to relax rabbit corpus cavernosum tissue as a model for the treatment of erectile dysfunction is described as follows. New Zealand white rabbits (3.4–3.7 kg) were euthanized by sodium pentobarbital (100 mg/kg) overdose. The penis from each animal was rapidly removed and immersed in a cold oxygenated modified Krebs Henseleit bicarbonate buffer. The penis' outer tunica was removed and the corpus cavernosum smooth muscle obtained and cut into strips approximately 3–5 mm long. The strips were suspended in tissue baths containing physiological salt solution (see above), and allowed to equilibrate for at least one hour under resting tension of 1.0 gram. Isometric force was measured as described above. Tissue strips were stimulated with the α-agonist phenylephrine (3 μM) and allowed to reach a steady level of force prior to the addition of test compounds. The results are expressed as the percentage inhibition of phenylephrine-induced force as compared to vehicle control.

For experiment [3], the system named is rat small intestine tissue. The experiment in a line: Relaxation of rat small intestine (ileum) segments. Also on record: concentration or dose not given beside the values. The note with it: integral of nifedipine-sensitive force, 30 min post-compound addition. The text has this: The ability of the compounds of the invention to relax rat small intestine tissue as a model for the treatment of irritable bowel syndrome is described as follows. Male rats (Harlan, Sprague Dawley, 250–350 g) were sacrificed by decapitation. A portion of small intestine (ileum) was removed and the attached connective tissues and intestinal contents removed. The ileum was cut into segments of ≦1 cm in length. The segments were mounted longitudinally between fixed hooks in organ baths containing warm (37° C.) physiological salt solution (composition in mM: NaCl 118.4, KCl 4.7, KH2PO4 1.2, MgSO4 1.2, CaCl2 1.8, Glucose 10.1, NaHCO3 25; gassed with 95% O2/5% CO2, pH 7.4). A stable tension of ˜1.5 g was maintained in the tissue segments during the equilibration period of 45 minutes. Changes in muscle tension were measured with isometric force transducers (Grass, FT-03C) and recorded using AcqKnowledge data acquisition system (AcqKnowledge for MP100WS, Biopac Systems Inc., Goleta, Calif.). Compound or vehicle was added in the baths for 30 minutes. “Zero” active force was established at the end of the experiment using nifedipine (20 μM). The effects of compounds or vehicle on force was determined by measuring the integral of nifedipine-sensitive force (including resting tone and spontaneous contractions) pre- and 30 min post-compound (or vehicle) addition. Results are expressed as the percentage inhibition of force. DMSO vehicle inhibited force (integral) by −0.6±3.0% (n=25).

The structures appear in SMILES notation.

A word on the inhibition: it is the relative decrease from the control value, in per cent. For the molecule `O=C(CCN1CCN(c2ccccn2)CC1)Nc1ccc(Sc2c(-c3cc(Cl)ccc3O)c3cc(C(F)(F)F)ccc3[nH]c2=O)cc1` [Example 14, N-[4-[[4-(5-chloro-2-hydroxyphenyl)-1,2-dihydro-2-oxo-6-(trifluoromethyl)-3-quinolinyl]thio]phenyl]-4-(2-pyridinyl)-1-piperazinepropanamide], the “% MaxiK opening” value in experiment [1] (at 1 μM) was 169^⋄ %. The inhibition in experiment [2] was determined as 37%. In addition, in experiment [3], the “% Inhibition of force (RSI strips)” value was determined as 24%.
Take `CN(C)CCN(C)CC(=O)Nc1ccc(Sc2c(-c3cc(Cl)ccc3O)c3cc(C(F)(F)F)ccc3[nH]c2=O)cc1` [Example 7, N-[4-[[4-(5-chloro-2-hydroxyphenyl)-1,2-dihydro-2-oxo-6-(trifluoromethyl)-3-quinolinyl]thio]phenyl]-2-[[2-(dimethylamino)ethyl]methylamino]acetamide]: in experiment [1] (at 20 μM), the “% MaxiK opening” value is recorded as 231%. In experiment [2], the inhibition came to 16%. Further, in experiment [3], the “% Inhibition of force (RSI strips)” value is reported as 41%.
With `O=C(CCN1CCC(N2CCCCC2)CC1)Nc1ccc(Sc2c(-c3cc(Cl)ccc3O)c3cc(C(F)(F)F)ccc3[nH]c2=O)cc1` [Example 13, N-[4-[[4-(5-chloro-2-hydroxyphenyl)-1,2-dihydro-2-oxo-6-(trifluoromethyl)-3-quinolinyl]thio]phenyl]-[1,4′-bipiperidine]-1′-propanamide], in experiment [1] (at 20 μM), the “% MaxiK opening” value worked out at 255%. The inhibition in experiment [2] was determined as 23%. For the same molecule, the “% Inhibition of force (RSI strips)” value in experiment [3] was found to be 78%.
The matching figures for `CN1CCN(CC(=O)Nc2ccc(Sc3c(-c4cc(Cl)ccc4O)c4cc(C(F)(F)F)ccc4[nH]c3=O)cc2)CC1` [Example 2, N-{4-[4-(5-Chloro-2-hydroxy-phenyl)-2-oxo-6-trifluoromethyl-1,2-dihydro-quinolin-3-ylsulfanyl]-phenyl}-2-(4-methyl-piperazin-1-yl)-acetamide]: 246%, 19% and 36%.
For `O=C(CCCN1CCCC1)Nc1ccc(Sc2c(-c3cc(Cl)ccc3O)c3cc(C(F)(F)F)ccc3[nH]c2=O)cc1` [Example 5, N-{4-[4-(5-Chloro-2-hydroxy-phenyl)-2-oxo-6-trifluoromethyl-1,2-dihydro-quinolin-3-ylsulfanyl]-phenyl}-4-pyrrolidin-1-yl-butyramide], the “% MaxiK opening” value in experiment [1] (at 20 μM) is 280%. The inhibition in experiment [2] was determined as 36%. The “% Inhibition of force (RSI strips)” value in experiment [3] was determined as 65%.
On to `O=C(CCN1CCCC1)Nc1ccc(Sc2c(-c3cc(Cl)ccc3O)c3cc(C(F)(F)F)ccc3[nH]c2=O)cc1` [Example 4, N-{4-[4-(5-Chloro-2-hydroxy-phenyl)-2-oxo-6-trifluoromethyl-1,2-dihydro-quinolin-3-ylsulfanyl]-phenyl}-3-pyrrolidin-1-yl-propionamide], for which the “% MaxiK opening” value in experiment [1] (at 20 μM) was 264%. Further, in experiment [2], the inhibition amounted to 35%.
On to `CN1CCN(CCC(=O)Nc2ccc(Sc3c(-c4cc(Cl)ccc4O)c4cc(C(F)(F)F)ccc4[nH]c3=O)cc2)CC1` [Example 11, N-[4-[[4-(5-chloro-2-hydroxyphenyl)-1,2-dihydro-2-oxo-6-(trifluoromethyl)-3-quinolinyl]thio]phenyl]-4-methyl-1-piperazinepropanamide], for which, in experiment [1] (at 20 μM), the “% MaxiK opening” value worked out at 474%. The inhibition in experiment [2] worked out at 30%. Moreover, in experiment [3], the “% Inhibition of force (RSI strips)” value was determined as 70%.
Turning to `CN(C)C1CCN(CC(=O)Nc2ccc(Sc3c(-c4cc(Cl)ccc4O)c4cc(C(F)(F)F)ccc4[nH]c3=O)cc2)CC1` [Example 10, N-[4-[[4-(5-chloro-2-hydroxyphenyl)-1,2-dihydro-2-oxo-6-(trifluoromethyl)-3-quinolinyl]thio]phenyl]-4-(dimethylamino)-1-piperidineacetamide], in experiment [1] (at 20 μM), the “% MaxiK opening” value turned out to be 292%. The inhibition in experiment [2] stood at 19%. Moreover, the “% Inhibition of force (RSI strips)” value in experiment [3] worked out at 54%.
`O=C(CN1CCCC1)Nc1ccc(Sc2c(-c3cc(Cl)ccc3O)c3cc(C(F)(F)F)ccc3[nH]c2=O)cc1` [Example 6, N-[4-[[4-(5-chloro-2-hydroxyphenyl)-1,2-dihydro-2-oxo-6-(trifluoromethyl)-3-quinolinyl]thio]phenyl]-1-pyrrolidineacetamide]: the “% MaxiK opening” value in experiment [1] (at 20 μM) was determined as 291%. In experiment [2], the inhibition came out at 28%.
Regarding `O=C(CCCN1CCN(c2ccccn2)CC1)Nc1ccc(Sc2c(-c3cc(Cl)ccc3O)c3cc(C(F)(F)F)ccc3[nH]c2=O)cc1` [Example 16, N-[4-[[4-(5-chloro-2-hydroxyphenyl)-1,2-dihydro-2-oxo-6-(trifluoromethyl)-3-quinolinyl]thio]phenyl]-4-(2-pyridinyl)-1-piperazinebutanamide], in experiment [1] (at 1 μM), the “% MaxiK opening” value is listed as 197^⋄ %. The inhibition in experiment [2] was 37%.
As to `CN(C)CCN(C)CCC(=O)Nc1ccc(Sc2c(-c3cc(Cl)ccc3O)c3cc(C(F)(F)F)ccc3[nH]c2=O)cc1` [Example 12, N-[4-[[4-(5-chloro-2-hydroxyphenyl)-1,2-dihydro-2-oxo-6-(trifluoromethyl)-3-quinolinyl]thio]phenyl]-3-[[2-(dimethylamino)ethyl]methylamino]propanamide], the “% MaxiK opening” value in experiment [1] (at 20 μM) is given as 489%. Besides, the inhibition in experiment [2] was found to be 29%.
Take `O=C(CCCN1CCC(N2CCCCC2)CC1)Nc1ccc(Sc2c(-c3cc(Cl)ccc3O)c3cc(C(F)(F)F)ccc3[nH]c2=O)cc1` [Example 15, N-[4-[[4-(5-chloro-2-hydroxyphenyl)-1,2-dihydro-2-oxo-6-(trifluoromethyl)-3-quinolinyl]thio]phenyl]-[1,4′-bipiperidine]-1′-butanamide]: the “% MaxiK opening” value in experiment [1] (at 20 μM) is reported as 268%.
As to `O=C(CN1CCC(N2CCCCC2)CC1)Nc1ccc(Sc2c(-c3cc(Cl)ccc3O)c3cc(C(F)(F)F)ccc3[nH]c2=O)cc1` [Example 8, N-[4-[[4-(5-chloro-2-hydroxyphenyl)-1,2-dihydro-2-oxo-6-(trifluoromethyl)-3-quinolinyl]thio]phenyl]-[1,4′-bipiperidine]-1′-acetamide], the “% MaxiK opening” value in experiment [1] (at 20 μM) stood at 283%. Also, in experiment [2], the inhibition came out at 45%.
For the molecule `O=C(CN1CCN(c2ccccn2)CC1)Nc1ccc(Sc2c(-c3cc(Cl)ccc3O)c3cc(C(F)(F)F)ccc3[nH]c2=O)cc1` [Example 9, N-[4-[[4-(5-chloro-2-hydroxyphenyl)-1,2-dihydro-2-oxo-6-(trifluoromethyl)-3-quinolinyl]thio]phenyl]-4-(2-pyridinyl)-1-piperazineacetamide], the “% MaxiK opening” value in experiment [1] (at 10 μM) was 116^⋄⋄ %. Besides, the inhibition in experiment [2] amounted to 17%.

These data come from patent publication US7132542B2, “Compounds for the treatment of male erectile dysfunction” (Bristol-Myers Squibb Company, priority 2003, dated 2006).
